Laboratory results taken from US9738902B2, “Modified PYR/PYL receptors activated by ligands” (priority 2013, dated 2017).

Key:
Type in all cases: cell-based
PYR1 K59R Y120A N167C = target: T1, PYR1 K59R Y120A N167C (Arabidopsis thaliana, UniProt O49686, K59R/N167C/Y120A); experiment: Y2H Combinatorial Mutagenesis Screen I (HAB1, X-gal)
T1 construct: expressed in transfected cells; host or cells: S. cerevisiae Y190 two-hybrid reporter strain
From the text: (§1) This screening approach yielded mutants at ligand contacting residues that alter sensitivity to specific ligands. We reasoned that receptor sensitivity could be improved by systematically constructing combinations of the best mutant variants identified in the first round of screening. To test this, we constructed mutant combinations using the strongest mutations identified for mandipropamid, benzothiadiazole, benoxacor or fludioxonil sensitivity. The mutations selected for combinatorial mutagenesis are listed in bold type in Table 1; The mutant combinations were constructed using the QuickChange Lightning Multi Site-Directed PCR Mutagenesis kit (Agilent, USA) using pBD-PYR1^K59R template DNA and mutagenic primers, essentially as previously described (Mosquna et al., 2011). The mutant combinations were sequence validated, introduced into the pACT-HAB1 Y190 reporter strain and then tested for responsiveness to a range of compound concentrations (100, 50, 25, 10, 1, 0.2, 0.1 or 0 μM each test compound). These efforts yielded double mutant receptor variants with improved sensitivity for the 4 compound/receptor pairs examined (see entries labeled “Combinatorial Mutagenesis Screen I” in Table 1).

PYR1 K59R E94A Y120A = target: T2, PYR1 K59R E94A Y120A (Arabidopsis thaliana, UniProt O49686, E94A/K59R/Y120A); experiment: as above
T2 construct: expressed in transfected cells; host or cells: S. cerevisiae Y190 two-hybrid reporter strain
From the text: as §1

PYR1 K59R Y120A E141Y = target: T3, PYR1 K59R Y120A E141Y (Arabidopsis thaliana, UniProt O49686, E141Y/K59R/Y120A); experiment: as above
T3 construct: expressed in transfected cells; host or cells: S. cerevisiae Y190 two-hybrid reporter strain
From the text: as §1

PYR1 K59R E94A N167C = target: T4, PYR1 K59R E94A N167C (Arabidopsis thaliana, UniProt O49686, E94A/K59R/N167C); experiment: as above
T4 construct: expressed in transfected cells; host or cells: S. cerevisiae Y190 two-hybrid reporter strain
From the text: as §1

PYR1 K59R N167C = target: T5, PYR1 K59R N167C (Arabidopsis thaliana, UniProt O49686, K59R/N167C); experiment: Y2H Pocket Library Screen (HAB1, X-gal)
T5 construct: expressed in transfected cells; host or cells: S. cerevisiae Y190 two-hybrid reporter strain
Procedure: (§2) The set of 475 mutant plasmids were individually transformed into the Y190 yeast two hybrid reporter strain co-transformed with pACT-HAB1, as previously described (Park et al., 2009). The yeast strains generated were arrayed into 96-well plates yielding what we refer to as the “pocket library”. The pocket library strains were spotted onto agar plates containing selective synthetic dextrose (minus Leu & Trp) medium that was supplemented with a single test compound at 100 μM. The pocket library strains were separately tested for responsiveness to the following compounds: dichlobenil, benzothiadiazole, mandipropamid, fludioxonil, and benoxacor. After incubating test plates at 30° C. for two days, colonies were chloroform lysed and stained to reveal β-galactosidase expression levels, using previously described methods (Park et al., 2009). Mutants displaying responsiveness to the test compound, if present, were identified by virtue of X-gal staining and then subjected to subsequent optimization efforts. Using this approach we identified mutations that conferred detectable sensitivity to the compounds tested (see entries labeled “Pocket Library Screens” in Table 1).

PYR1 K59R S92F = target: T6, PYR1 K59R S92F (Arabidopsis thaliana, UniProt O49686, K59R/S92F); experiment: Y2H Pocket Library Screen (HAB1, X-gal)
T6 construct: expressed in transfected cells; host or cells: S. cerevisiae Y190 yeast two-hybrid reporter strain
Procedure: as §2

PYR1 K59R F108L = target: T7, PYR1 K59R F108L (Arabidopsis thaliana, UniProt O49686, F108L/K59R); experiment: Y2H Pocket Library Screen (HAB1, X-gal)
T7 construct: expressed in transfected cells; host or cells: S. cerevisiae Y190 yeast two-hybrid reporter strain
Procedure: as §2

PYR1 K59R V83L = target: T8, PYR1 K59R V83L (Arabidopsis thaliana, UniProt O49686, K59R/V83L); experiment: Y2H Pocket Library Screen (HAB1, X-gal)
T8 construct: expressed in transfected cells; host or cells: S. cerevisiae Y190 yeast two-hybrid reporter strain
Procedure: as §2

PYR1 K59R E94A = target: T9, PYR1 K59R E94A (Arabidopsis thaliana, UniProt O49686, E94A/K59R); experiment: Y2H Pocket Library Screen (HAB1, X-gal)
T9 construct: expressed in transfected cells; host or cells: S. cerevisiae Y190 yeast two-hybrid reporter strain
Procedure: as §2

PYR1 K59R M158T = target: T10, PYR1 K59R M158T (Arabidopsis thaliana, UniProt O49686, K59R/M158T); experiment: Y2H Pocket Library Screen (HAB1, X-gal)
T10 construct: expressed in transfected cells; host or cells: S. cerevisiae Y190 two-hybrid reporter strain
Procedure: as §2

PYR1 K59R Y120M = target: T11, PYR1 K59R Y120M (Arabidopsis thaliana, UniProt O49686, K59R/Y120M); experiment: Y2H Pocket Library Screen (HAB1, X-gal)
T11 construct: expressed in transfected cells; host or cells: S. cerevisiae Y190 two-hybrid reporter strain
Procedure: as §2

PYR1 K59R Y120F = target: T12, PYR1 K59R Y120F (Arabidopsis thaliana, UniProt O49686, K59R/Y120F); experiment: Y2H Pocket Library Screen (HAB1, X-gal)
T12 construct: expressed in transfected cells; host or cells: S. cerevisiae Y190 two-hybrid reporter strain
Procedure: as §2

PYR1 K59R E141Y = target: T13, PYR1 K59R E141Y (Arabidopsis thaliana, UniProt O49686, E141Y/K59R); experiment: Y2H Pocket Library Screen (HAB1, X-gal)
T13 construct: expressed in transfected cells; host or cells: S. cerevisiae Y190 two-hybrid reporter strain
Procedure: as §2

PYR1 K59R M158C = target: T14, PYR1 K59R M158C (Arabidopsis thaliana, UniProt O49686, K59R/M158C); experiment: Y2H Pocket Library Screen (HAB1, X-gal)
T14 construct: expressed in transfected cells; host or cells: S. cerevisiae Y190 two-hybrid reporter strain
Procedure: as §2

PYR1 K59R F159A = target: T15, PYR1 K59R F159A (Arabidopsis thaliana, UniProt O49686, F159A/K59R); experiment: Y2H Pocket Library Screen (HAB1, X-gal)
T15 construct: expressed in transfected cells; host or cells: S. cerevisiae Y190 two-hybrid reporter strain
Procedure: as §2

PYR1 K59R L87F = target: T16, PYR1 K59R L87F (Arabidopsis thaliana, UniProt O49686, K59R/L87F); experiment: Y2H Pocket Library Screen (HAB1, X-gal)
T16 construct: expressed in transfected cells; host or cells: S. cerevisiae Y190 yeast two-hybrid reporter strain
Procedure: as §2

PYR1 K59R Y120A = target: T17, PYR1 K59R Y120A (Arabidopsis thaliana, UniProt O49686, K59R/Y120A); experiment: Y2H Pocket Library Screen (HAB1, X-gal)
T17 construct: expressed in transfected cells; host or cells: S. cerevisiae Y190 two-hybrid reporter strain
Procedure: as §2

PYR1 K59R F159V = target: T18, PYR1 K59R F159V (Arabidopsis thaliana, UniProt O49686, F159V/K59R); experiment: Y2H Pocket Library Screen (HAB1, X-gal)
T18 construct: expressed in transfected cells; host or cells: S. cerevisiae Y190
Procedure: as §2

PYR1 K59R N167V = target: T19, PYR1 K59R N167V (Arabidopsis thaliana, UniProt O49686, K59R/N167V); experiment: Y2H Pocket Library Screen (HAB1, X-gal)
T19 construct: expressed in transfected cells; host or cells: S. cerevisiae Y190 two-hybrid reporter strain
Procedure: as §2

PYR1 K59R E94S = target: T20, PYR1 K59R E94S (Arabidopsis thaliana, UniProt O49686, E94S/K59R); experiment: Y2H Pocket Library Screen (HAB1, X-gal)
T20 construct: expressed in transfected cells; host or cells: S. cerevisiae Y190 yeast two-hybrid reporter strain
Procedure: as §2

PYR1 K59R L87P = target: T21, PYR1 K59R L87P (Arabidopsis thaliana, UniProt O49686, K59R/L87P); experiment: Y2H Pocket Library Screen (HAB1, X-gal)
T21 construct: expressed in transfected cells; host or cells: S. cerevisiae Y190 yeast two-hybrid reporter strain
Procedure: as §2

PYR1 K59R Y120G = target: T22, PYR1 K59R Y120G (Arabidopsis thaliana, UniProt O49686, K59R/Y120G); experiment: Y2H Pocket Library Screen (HAB1, X-gal)
T22 construct: expressed in transfected cells; host or cells: S. cerevisiae Y190 two-hybrid reporter strain
Procedure: as §2

PYR1 K59R V81I = target: T23, PYR1 K59R V81I (Arabidopsis thaliana, UniProt O49686, K59R/V81I); experiment: Y2H Pocket Library Screen (HAB1, X-gal)
T23 construct: expressed in transfected cells; host or cells: S. cerevisiae Y190 yeast two-hybrid reporter strain
Procedure: as §2

PYR1 K59R V164K = target: T24, PYR1 K59R V164K (Arabidopsis thaliana, UniProt O49686, K59R/V164K); experiment: Y2H Pocket Library Screen (HAB1, X-gal)
T24 construct: expressed in transfected cells; host or cells: S. cerevisiae Y190
Procedure: as §2

PYR1 K59R F159T = target: T25, PYR1 K59R F159T (Arabidopsis thaliana, UniProt O49686, F159T/K59R); experiment: Y2H Pocket Library Screen (HAB1, X-gal)
T25 construct: expressed in transfected cells; host or cells: S. cerevisiae Y190
Procedure: as §2

PYR1 K59R V81Y = target: T26, PYR1 K59R V81Y (Arabidopsis thaliana, UniProt O49686, K59R/V81Y); experiment: Y2H Pocket Library Screen (HAB1, X-gal)
T26 construct: expressed in transfected cells; host or cells: S. cerevisiae Y190 yeast two-hybrid reporter strain
Procedure: as §2

PYR1 K59R E94D = target: T27, PYR1 K59R E94D (Arabidopsis thaliana, UniProt O49686, E94D/K59R); experiment: Y2H Pocket Library Screen (HAB1, X-gal)
T27 construct: expressed in transfected cells; host or cells: S. cerevisiae Y190 yeast two-hybrid reporter strain
Procedure: as §2

PYR1 K59R N167H = target: T28, PYR1 K59R N167H (Arabidopsis thaliana, UniProt O49686, K59R/N167H); experiment: Y2H Pocket Library Screen (HAB1, X-gal)
T28 construct: expressed in transfected cells; host or cells: S. cerevisiae Y190 two-hybrid reporter strain
Procedure: as §2

PYR1 K59R M158I = target: T29, PYR1 K59R M158I (Arabidopsis thaliana, UniProt O49686, K59R/M158I); experiment: Y2H Pocket Library Screen (HAB1, X-gal)
T29 construct: expressed in transfected cells; host or cells: S. cerevisiae Y190 two-hybrid reporter strain
Procedure: as §2

PYR1 K59R M158V = target: T30, PYR1 K59R M158V (Arabidopsis thaliana, UniProt O49686, K59R/M158V); experiment: Y2H Pocket Library Screen (HAB1, X-gal)
T30 construct: expressed in transfected cells; host or cells: S. cerevisiae Y190 two-hybrid reporter strain
Procedure: as §2

PYR1 K59R T162W = target: T31, PYR1 K59R T162W (Arabidopsis thaliana, UniProt O49686, K59R/T162W); experiment: Y2H Pocket Library Screen (HAB1, X-gal)
T31 construct: expressed in transfected cells; host or cells: S. cerevisiae Y190
Procedure: as §2

PYR1 K59R A160C = target: T32, PYR1 K59R A160C (Arabidopsis thaliana, UniProt O49686, A160C/K59R); experiment: Y2H Pocket Library Screen (HAB1, X-gal)
T32 construct: expressed in transfected cells; host or cells: S. cerevisiae Y190
Procedure: as §2

T30 sequence (O49686 whole entry K59R/M158V): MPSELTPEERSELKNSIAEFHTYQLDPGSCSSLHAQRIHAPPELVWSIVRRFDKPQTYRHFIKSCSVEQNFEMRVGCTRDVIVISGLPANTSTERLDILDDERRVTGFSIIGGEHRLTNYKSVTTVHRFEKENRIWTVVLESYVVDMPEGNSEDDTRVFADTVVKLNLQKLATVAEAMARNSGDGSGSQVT
T30 sequence (Q9CAJ0 23-511, further chain): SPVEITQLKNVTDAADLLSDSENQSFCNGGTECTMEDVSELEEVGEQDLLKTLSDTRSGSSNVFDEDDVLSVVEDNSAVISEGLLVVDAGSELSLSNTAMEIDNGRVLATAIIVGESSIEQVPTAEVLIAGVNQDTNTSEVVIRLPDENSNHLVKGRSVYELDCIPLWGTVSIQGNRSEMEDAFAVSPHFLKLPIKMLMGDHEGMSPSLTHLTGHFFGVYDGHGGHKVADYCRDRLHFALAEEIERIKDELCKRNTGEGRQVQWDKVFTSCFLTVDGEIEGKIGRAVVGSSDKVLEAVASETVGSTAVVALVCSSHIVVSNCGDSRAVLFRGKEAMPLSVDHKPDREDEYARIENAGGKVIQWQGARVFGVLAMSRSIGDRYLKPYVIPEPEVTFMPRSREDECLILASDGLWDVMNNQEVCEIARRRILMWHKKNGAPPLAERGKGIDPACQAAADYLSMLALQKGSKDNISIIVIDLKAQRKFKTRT
T32 sequence (O49686 whole entry K59R/A160C): as the sequence (O49686 whole entry K59R/M158V) above, with V158M, A160C counted along it
T32 sequence (Q9CAJ0 23-511 partner): as the sequence (Q9CAJ0 23-511, further chain) above
T24 sequence (O49686 whole entry K59R/V164K): as the sequence (O49686 whole entry K59R/M158V) above, with V158M, V164K counted along it
T24 sequence (Q9CAJ0 23-511, stated change not applied, further chain): as the sequence (Q9CAJ0 23-511, further chain) above
T14 sequence (O49686 whole entry K59R/M158C): as the sequence (O49686 whole entry K59R/M158V) above, with V158C counted along it
T14 sequence (Q9CAJ0 23-511, further chain): as the sequence (Q9CAJ0 23-511, further chain) above
T11 sequence (O49686 whole entry K59R/Y120M): as the sequence (O49686 whole entry K59R/M158V) above, with Y120M, V158M counted along it
T11 sequence (Q9CAJ0 23-511 partner): as the sequence (Q9CAJ0 23-511, further chain) above
T23 sequence (O49686 whole entry K59R/V81I): as the sequence (O49686 whole entry K59R/M158V) above, with V81I, V158M counted along it
T23 sequence (Q9CAJ0 23-511, further chain): as the sequence (Q9CAJ0 23-511, further chain) above
T17 sequence (O49686 whole entry K59R/Y120A): as the sequence (O49686 whole entry K59R/M158V) above, with Y120A, V158M counted along it
T17 sequence (Q9CAJ0 23-511 partner): as the sequence (Q9CAJ0 23-511, further chain) above

Compound: N#Cc1c[nH]cc1-c1cccc2c1OC(F)(F)O2 [Fludioxonil, fludioxonil]
- Threshold (PYR1 K59R Y120A N167C): 10 µM
- Threshold (PYR1 K59R E94A Y120A): 10 µM
- Threshold (PYR1 K59R Y120A E141Y): 10 µM
- Threshold (PYR1 K59R E94A N167C): 10 µM
- Threshold (PYR1 K59R N167C): 100 µM
- Threshold (PYR1 K59R S92F): 100 µM
- Threshold (PYR1 K59R F108L): 100 µM
- Threshold (PYR1 K59R V83L): 100 µM
- Threshold (PYR1 K59R E94A): 1 µM
- Threshold (PYR1 K59R M158T): 100 µM
- Threshold (PYR1 K59R Y120M): 100 µM
- Threshold (PYR1 K59R Y120F): 100 µM
- Threshold (PYR1 K59R E141Y): 100 µM
- Threshold (PYR1 K59R M158C): 100 µM
- Threshold (PYR1 K59R F159A): 100 µM
- Threshold (PYR1 K59R L87F): 100 µM
- Threshold (PYR1 K59R Y120A): 100 µM
- Threshold (PYR1 K59R F159V): 100 µM
- Threshold (PYR1 K59R N167V): 100 µM
- Threshold (PYR1 K59R E94S): 100 µM
- Threshold (PYR1 K59R L87P): 100 µM
- Threshold (PYR1 K59R Y120G): 100 µM
- Threshold (PYR1 K59R V81I): 100 µM
- Threshold (PYR1 K59R V164K): 100 µM
- Threshold (PYR1 K59R F159T): 100 µM
- Threshold (PYR1 K59R V81Y): 100 µM
- Threshold (PYR1 K59R E94D): 100 µM
- Threshold (PYR1 K59R N167H): 100 µM
- Threshold (PYR1 K59R M158I): 100 µM
- Threshold (PYR1 K59R M158V): 100 µM
- Threshold (PYR1 K59R T162W): 100 µM
- Threshold (PYR1 K59R A160C): 100 µM
